Like-named read-outs stand apart in the source and are kept apart here. Blank lines part the entries; values can stand above or below the molecule they belong to.
Tests used:
[1] = molecular target: muscarinic acetylcholine receptors; test: 3H-QNB (quinuclidinyl benzilate) displacement, rat cerebral membranes; format: binding; conditions: read-out: Displacement of Radiolabeled Liqands IC50 Quinuc Benz
rat striatal slices = test: 3H-dopamine release from rat striatal slices (superfusion); format: cell-based; conditions: read-out: % of Nicotine Response 3H-DA Striatum
Method: Measurement of ^3H-dopamine (^3H-DA) release from rat striatal slices was performed according to the method of Sacaan et al., (J. Pharmacol. Comp. Ther 224:224-230 (1995)). Male Sprague-Dawley rats (250-300 g) were decapitated and the striata or olfactory tubercles dissected quickly on a cold glass surface. The tissue was chopped to a thickness of 300 µm with a McIlwain tissue chopper. After chopping again at right angles the tissue was dispersed and incubated for 10 min. at 37°C in oxygenated Kreb's buffer. ^3H-Dopamine (40 Ci/mmol, NEN-Dupont, Boston, Ma) was added (50 nM) and the tissue was incubated for 30 min. in Kreb's buffer containing 10 µM pargyline and 0.5 mM ascorbic acid. Aliquots of the minced tissue were then transferred to chambers of a Brandel Superfusion system in which the tissue was supported on Whatman GF/B filter discs. The tissue was then superfused with buffer at a constant flow rate of 0.3 ml/min by means of a Brandel peristaltic pump. The perfusate was collected in plastic scintillation vials in 3-min fractions, and the radioactivity was estimated by scintillation spectrophotometry. The superfusate for the first 120 min was discarded. […] At the end of the experiment the filter and the tissue were removed, and the radiolabeled neurotransmitter content was estimated after extraction into scintillation fluid. The fractional efflux of radiolabeled neurotransmitter was estimated as the amount of radioactivity in the perfusate fraction relative to the total amount in the tissue.
The results presented in the Table are expressed as the percent fractional release.

rat hippocampus = test: tissue or blood; format: cell-based; conditions: read-out: % of Nicotine Response 3H-NE Hippocampus
[2] = tested on: acetylcholine release in the hippocampus; format: in vivo, Male Sprague Dawley Rats
Description: Male Sprague Dawley Rats (230-290 g) were anesthetized in a chamber saturated with isofluorane. Once immobilized, the rats were mounted in a Kopf stereotaxic apparatus with the incisor bar set at -3.3 mm (Praxinos and Watson, 1986). A midline incision was made on the skull to expose the underlying fascia. The skull was cleaned with an antibacterial preparation containing iodine and a hole was made in the skull at the following coordinates: AP, -3.5 mm and ML, +2.0 mm (Praxinos and Watson, 1986). A stainless steel guide cannula (Small Parts, Inc., Stillwater, FL) was cut to 2.0 mm length and inserted into the hole. Three additional holes were drilled into the skull surrounding the guide cannula and small machine screws were placed into these holes. The guide cannula and screws were secured by dental cement. A dummy cannula was inserted into the guide cannula to prevent clogging. The animals were removed from the stereotaxic frame and single housed for 3-7 days with free access to food and water.
On the day of the experiment, the rats were briefly anesthetized with isofluorane and the dummy cannulae were removed. A microdialysis cannula containing a Loop type probe with a rigid shaft and molecular weight cut-off of 6000 (ESA Inc, Chelmsfold, MA) of approximately 2 mm in length, was inserted into the guide cannula. Under these conditions, the microdialysis probe extended 2 mm beneath the guide cannula. The animal was placed in plastic bowl (CMA 120; CMA Microdialysis, Acton, MA, USA) with a harness around the neck. The microdialysis probe was connected to a syringe pump through which a salt solution representing the ionic concentration of the cerebrospinal fluid (artificial CSF; 145 mM NaCl; […]; […] and […]; pH 7.4; Moghaddam and Bunney, J. Neurochem, 53, 652-654, 1989) containing 100 nM neostigmine was pumped at a rate of 1.5 µL/min.
Twenty minute fractions were collected and automatically injected via a sample loop and an auto-injector. The on-line microdialysis comprised of the following components: a CMA/100 microsyringe pump connected to a CMA/111 syringe selector. The mobile phase (100 mM disodium hydrogen phosphate; 2.0 mM 1-octane sulfonic acid sodium salt; 0.005% reagent MB (ESA Inc., Chelmeford, MA) pH 8.00 with phosphoric acid) was pumped using a model 580 ESA pump through a polymeric reverse phase column (ACH-3, ESA Inc., […]; 3.2 mmx 15 cm). The effluent from the column was passed through an enzyme reactor containing immobilized acetylcholinesterase and choline oxidase (ACH-SPR, ESA Inc.). The HPLC column and the enzyme reactor were placed in a housing with a constant temperature of 35°C. Acetylcholine and choline in microdialysis samples were converted into hydrogen peroxide which was detected by amperometric oxidation in a ESA model 5041 analytical cell containing a glassy carbon target electrode and a palladium reference electrode. The oxidation potential was 250 mV and the signal was detected by a ESA model 5200 A Coulochem detector. The retention times for choline and acetylcholine under these conditions were 4 and 6 min, respectively. The limit of detection for acetylcholine was less than 100 fmol on column.
On the day of the experiment, 10-12 fractions were collected to establish the baseline acetylcholine release. Following the establishment of baseline, rats were injected with the test compound and samples were collected until the levels of acetylcholine in the dialysate samples returned to baseline levels (3-5 hr). Compounds were typically dissolved in saline and the pH of the solution was adjusted by the addition of NaOH.

[3] = 60 pM 3H-QNB, rat cerebral membranes, no atropine
[4] = compound tested at 300 µM, relative to nicotine 10µM
[5] = hippocampal acetylcholine, rat microdialysis, nicotine 0.4 mg/kg, lobeline 5.0 mg/kg, first Formula Z compound 40 mg/kg, other doses not given

SMILES: CN1CCC[C@H]1COC(=O)CCc1ccc(O)cc1 [1-Methvl-2-pyrrolidinemethyl 3-(4-hydroxyphenyl)propionate]
IC50 [1, 3]: > 10000 nM

SMILES: CN1CCCC1CCSc1ccc(O)cc1 (stereo not drawn) [2-[2-(4-Hydroxyphenyl)thioethyl]-1-methylpyrrolidine]
Emax at 300 µM (rat hippocampus): 32%
Duration of Increase Above Baseline [2, 5]: 200 min
Peak Increase, % of Baseline [2, 5]: 2,000 % of Baseline
Emax at 300 µM (rat striatal slices): 453%
IC50 [1]: 1850 nM

SMILES: CN1[C@@H](CC(=O)c2ccccc2)CCC[C@H]1C[C@H](O)c1ccccc1 [Lobeline]
Duration of Increase Above Baseline [2, 5]: 200 min
Peak Increase, % of Baseline [2, 5]: 400 % of Baseline

SMILES: CN1CCCC1c1cccnc1 (stereo not drawn) [Nicotine, reference compound]
Emax at 300 µM (rat hippocampus): 100%
Duration of Increase Above Baseline ([2]; rat, in vivo): 200 min
Peak Increase, % of Baseline ([2]; rat, in vivo): 220 % of Baseline
Emax at 10 µM (rat striatal slices): 100%

SMILES: CNC1(C)C2CCC(C2)C1(C)C (stereo not drawn) [mecamylamine]
attenuation of acetylcholine release induced by compound of Formula Z (A = 4-hydroxyphenyl, B = not present, D = -S-, E = -CH2CH2-, G = 1-methylpyrrolidino) ([2]; rat hippocampus microdialysis, Figure 5): attenuation of acetylcholine release

The next lines start with results.

IC50 [1, 3]: 1120 nM
SMILES: CN1CCC[C@H]1COC(=O)CCc1ccccc1 [1-Methyl-2-pyrrolidinemethyl 3-phenylpropionate]

IC50 [1, 3]: 3300 nM
SMILES: CN1CCCC1CCSc1ccc(O)cc1Cl (stereo not drawn) [2-[2-(2-Chloro-4-hydroxyphenyl)thioethyl]-1-methylpyrrolidine]
Emax at 300 µM (rat striatal slices; [4]): 800%

IC50 [1, 3]: 2900 nM
SMILES: COc1ccc(SCCC2CCCN2C)cc1F (stereo not drawn) [2-[2-(3-Fluoro-4-methoxyphenyl)thioethyl]-1-methylpyrrolidine]
Emax at 300 µM (rat striatal slices; [4]): 21%

Source: patent EP0874818B1, “NOVEL SUBSTITUTED ARYL COMPOUNDS USEFUL AS MODULATORS OF ACETYLCHOLINE RECEPTORS” (priority 1995, dated 1997)
